Test results reported in patent US12459974B2, “Bicyclic peptide ligands specific for Nectin-4” (priority 2018, dated 2025).
*1 amine or outer side, *2 acyl side, *3 side chain or, on linkers, in order; H or OH if unused. Where a SMILES comes first, the peptide text is derived from it. Bridges are numbered along the chain shown (N, C = ends). Roman numbers before positions name the chains, in order. [ ]: non-standard residue; d: D form. The star is where a group is joined. ξ: configuration not given here. TATA = O=C(CC[*:1])N1CN(C(=O)CC[*:2])CN(C(=O)CC[*:3])C1; Dolaproine = CO[C@@H]([C@@H]1CCCN1)[C@@H](C)C(=O)O; X1 = CC[C@H](C)C(C(CC(=O)[*:2])OC)N(C)[*:1]; 1Nal = N[C@@H](Cc1cccc2ccccc12)C(=O)O; X3 = O=C(CCCC(=O)[*:2])NCCC(=O)[*:1]; PABC = O=C(OCc1ccc(N[*:1])cc1)[*:2]; Hyp = O=C(O)[C@@H]1C[C@@H](O)CN1; hArg = N=C(N)NCCCC[C@H](N)C(=O)O; Cit = NC(=O)NCCC[C@H](N)C(=O)O; X2 = CC(N*)[C@@H](O)c1ccccc1; ξNMeV = CNC(C(=O)O)C(C)C; ξV = CC(C)C(N)C(=O)O; Sar = CNCC(=O)O

What was measured:
[1] = test system: A549 xenograft; assay: Example 9.1: in vivo efficacy in A549 xenograft in Balb/c nude mice; parameters: species or system Mus Musculus; conditions: for Tumor volume trace over time: iv; for T/C: treated group average tumor volume / control group; for Tumor volume: Mean ± SEM
[2] = test system: MDA-MB-468 xenograft; assay: Example 4: in vivo efficacy in MDA-MB-468 xenograft (breast cancer model) in Balb/c nude mice; parameters: species or system Mus Musculus
[3] = 3 mpk, biw, day 14 after the start of treatment
[4] = 3 mpk, qw, day 14 after the start of treatment
[5] = 5 mpk, qw, day 14 after the start of treatment

With CC[C@H](C)C(C(CC(=O)N1CCC[C@H]1[C@H](OC)[C@@H](C)C(=O)NC(C)[C@@H](O)c1ccccc1)OC)N(C)C(=O)[C@@H](NC(=O)C(C(C)C)N(C)C(=O)OCc1ccc(NC(=O)[C@H](CCCNC(N)=O)NC(=O)C(NC(=O)CCCC(=O)NCCC(=O)N(C)CC(=O)N(C)CC(=O)N(C)CC(=O)N(C)CC(=O)N(C)CC(=O)N(C)CC(=O)N(C)CC(=O)N(C)CC(=O)N(C)CC(=O)N(C)CC(=O)N[C@H]2CSCCC(=O)N3CN4CN(C3)C(=O)CCSC[C@H](NC(=O)[C@@H](CC(=O)O)NC(=O)[C@H](Cc3cccc5ccccc35)NC(=O)[C@@H]3CCCN3C2=O)C(=O)N[C@@H](CCSC)C(=O)N[C@@H](CCCCNC(=N)N)C(=O)N[C@@H](CC(=O)O)C(=O)N[C@@H](Cc2c[nH]c3ccccc23)C(=O)N[C@@H](CO)C(=O)N[C@@H]([C@@H](C)O)C(=O)N2CCC[C@H]2C(=O)N2C[C@H](O)C[C@H]2C(=O)N[C@@H](Cc2c[nH]c3ccccc23)C(=O)N[C@H](C(N)=O)CSCCC4=O)C(C)C)cc1)C(C)C (stereo partly drawn) [BCY8245, MMAE-PABC-Cit-Val-Glutaryl-BCY8234] (I: [Sar][Sar][Sar][Sar][Sar][Sar][Sar][Sar][Sar][Sar]CP[1Nal][dD]CM[hArg]DWSTP[Hyp]WC-NH2 / II: [ξV][Cit][PABC][ξNMeV]V[X1][Dolaproine]-X2; linker I:11-I:15-I:25 via TATA; linker I:N-II:N via X3) the TGI ([1]; 3 mg/kg biw, day 14) was 90.8%, the “Tumor volume (TV)” value ([1]; 3 mg/kg biw, day 14) was 194 mm^3 and the TGI ([1]; 3 mg/kg qw, day 14) was 51.4%. The “Tumor volume (TV)” value ([1]; 3 mg/kg qw, day 14) was 356 mm^3, the TGI ([1]; 5 mg/kg qw, day 14) was 82.6% and the “Tumor volume (TV)” value ([1]; 5 mg/kg qw, day 14) was 228 mm^3. For the same compound, the “Tumor volume trace over time” value ([1]; 3 mpk, biw, day 0 after the start of treatment) was 157 ± 14, the “Tumor volume trace over time” value ([1]; 3 mpk, biw, day 2 after the start of treatment) was 183 ± 27 and the “Tumor volume trace over time” value ([1]; 3 mpk, biw, day 5 after the start of treatment) was 158 ± 16. The “Tumor volume trace over time” value ([1]; 3 mpk, biw, day 7 after the start of treatment) was 184 ± 6, the “Tumor volume trace over time” value ([1]; 3 mpk, biw, day 9 after the start of treatment) was 182 ± 8 and the “Tumor volume trace over time” value ([1]; 3 mpk, biw, day 12 after the start of treatment) was 190 ± 15. The “Tumor volume trace over time” value [1, 3] was 194 ± 27, the T/C ([1]; 3 mpk, biw, day 14) was 34.2% and the TGI [1, 3] was 90.8%. For the same compound, the “Tumor volume” value [1, 3] was 194 ± 27 mm^3, the “Tumor volume trace over time” value ([1]; 3 mpk, qw, day 0 after the start of treatment, mean ± SEM) was 157 ± 10 and the “Tumor volume trace over time” value ([1]; 3 mpk, qw, day 2 after the start of treatment) was 208 ± 15. The “Tumor volume trace over time” value ([1]; 3 mpk, qw, day 5 after the start of treatment) was 197 ± 25, the “Tumor volume trace over time” value ([1]; 3 mpk, qw, day 7 after the start of treatment) was 257 ± 40 and the “Tumor volume trace over time” value ([1]; 3 mpk, qw, day 9 after the start of treatment) was 293 ± 41. For the same compound, the “Tumor volume trace over time” value ([1]; 3 mpk, qw, day 12 after the start of treatment) was 341 ± 54, the “Tumor volume trace over time” value [1, 4] was 356 ± 53 and the T/C ([1]; 3 mpk, qw, day 14) was 62.8%. The TGI [1, 4] was 51.4%, the “Tumor volume” value [1, 4] was 356 ± 53 mm^3 and the “Tumor volume trace over time” value ([1]; 5 mpk, qw, day 0 after the start of treatment) was 157 ± 14. The “Tumor volume trace over time” value ([1]; 5 mpk, qw, day 2 after the start of treatment) was 179 ± 22, the “Tumor volume trace over time” value ([1]; 5 mpk, qw, day 5 after the start of treatment) was 147 ± 10 and the “Tumor volume trace over time” value ([1]; 5 mpk, qw, day 7 after the start of treatment) was 172 ± 23. For the same compound, the “Tumor volume trace over time” value ([1]; 5 mpk, qw, day 9 after the start of treatment) was 173 ± 24, the “Tumor volume trace over time” value ([1]; 5 mpk, qw, day 12 after the start of treatment) was 204 ± 36 and the “Tumor volume trace over time” value [1, 5] was 228 ± 33. The T/C ([1]; 5 mpk, qw, day 14) was 40.2%, the TGI [1, 5] was 82.6% and the “Tumor volume” value [1, 5] was 228 ± 33 mm^3. The “bodyweight (in words)” value ([1]; all dose groups) was “maintained the bodyweight well”, the “tumor response (in words)” value ([1]; mouse, in vivo) was “tumor growth is restrained by BCY8245 but the tumor does not undergo regression” and the TGI ([2]; 3 mg/kg biw, day 21) was 169.8%. For the same compound, the “Tumor volume (TV)” value ([2]; 3 mg/kg biw, day 21) was 22 mm^3, the TGI ([2]; 3 mg/kg qw, day 21) was 144.2% and the “Tumor volume (TV)” value ([2]; 3 mg/kg qw, day 21) was 85 mm^3. For the same compound, the TGI ([2]; 5 mg/kg qw, day 21) was 168.4%, the “Tumor volume (TV)” value ([2]; 5 mg/kg qw, day 21) was 29 mm^3 and the Tumor volume ([2]; 3 mpk, biw, iv, day 0 after start of treatment) was 195 ± 33 mm^3. It also gave a Tumor volume ([2]; 3 mpk, biw, iv, day 2) of 193 ± 27 mm^3, a Tumor volume ([2]; 3 mpk, biw, iv, day 4) of 154 ± 20 mm^3 and a Tumor volume ([2]; 3 mpk, biw, iv, day 7) of 103 ± 20 mm^3. The Tumor volume ([2]; 3 mpk, biw, iv, day 9) was 83 ± 16 mm^3, the Tumor volume ([2]; 3 mpk, biw, iv, day 11) was 67 ± 14 mm^3 and the Tumor volume ([2]; 3 mpk, biw, iv, day 14) was 49 ± 11 mm^3. It also gave a Tumor volume ([2]; 3 mpk, biw, iv, day 16) of 45 ± 14 mm^3, a Tumor volume ([2]; 3 mpk, biw, iv, day 18) of 32 ± 12 mm^3 and a Tumor volume ([2]; 3 mpk, biw, iv, day 21) of 22 ± 4 mm^3. For the same compound, the T/C ([2]; 3 mpk, biw, day 21) was 4.9%, the TGI ([2]; 3 mpk, biw, day 21) was 169.8% and the “Tumor volume” value ([2]; 3 mpk, biw, day 21, Mean ± SEM (Table 22)) was 22 ± 4 mm^3. The Tumor volume ([2]; 3 mpk, qw, iv, day 0 after start of treatment) was 194 ± 12 mm^3, the Tumor volume ([2]; 3 mpk, qw, iv, day 2) was 192 ± 26 mm^3 and the Tumor volume ([2]; 3 mpk, qw, iv, day 4) was 184 ± 20 mm^3. The Tumor volume ([2]; 3 mpk, qw, iv, day 7) was 131 ± 20 mm^3, the Tumor volume ([2]; 3 mpk, qw, iv, day 9) was 113 ± 17 mm^3 and the Tumor volume ([2]; 3 mpk, qw, iv, day 11) was 104 ± 13 mm^3. It also gave a Tumor volume ([2]; 3 mpk, qw, iv, day 14) of 94 ± 25 mm^3, a Tumor volume ([2]; 3 mpk, qw, iv, day 16) of 81 ± 23 mm^3 and a Tumor volume ([2]; 3 mpk, qw, iv, day 18) of 87 ± 23 mm^3. For the same compound, the Tumor volume ([2]; 3 mpk, qw, iv, day 21) was 85 ± 31 mm^3, the T/C ([2]; 3 mpk, qw, day 21) was 18.9% and the TGI ([2]; 3 mpk, qw, day 21) was 144.2%. For the same compound, the “Tumor volume” value ([2]; 3 mpk, qw, day 21, Mean ± SEM (Table 22)) was 85 ± 31 mm^3 and the Tumor volume ([2]; 5 mpk, qw, dosing suspended from day 21, day 23) was 35 ± 5 mm^3.
